Assay results reported in paper PMC9143821, “Design and Synthesis of a Novel 4-aryl-N-(2-alkoxythieno [2,3-b]pyrazine-3-yl)-4-arylpiperazine-1-carboxamide DGG200064 Showed Therapeutic Effect on Colon Cancer through G2/M Arrest” (Pharmaceuticals, 2022).

Columns and labels:
[1] = tested on: HCT116 cells; assay: FACS analysis of cell cycle distribution; format: cell-based, human; settings: HCT116, different concentrations, 6 h
Description: Many anticancer drugs induce apoptosis through programmed signaling in tumor cells. To test whether the newly developed 4-phenyl-N-(thieno[2,3-b]pyrazin-3-yl)piperazine-1-carboxamide derivatives could induce apoptosis, we conducted a FACS analysis of HCT116 cells with the representative compound 7c or DGG200064. Cell cycle distribution of HCT116 cells was investigated with different concentrations of DGG200064 for 6 h. […] Additionally, DGG200064 was tested for induced G2/M arrest in the other types of colon cancer cells in concentrations of 50 nM for 6 h (Figure 2b).
A colon cancer cells were trypsinized and fixed in 70% (vol/vol) ethanol for DNA staining. For cell cycle analysis, fixed cells were washed with PBS and subsequently resuspended in Propidium Iodide (PI)/RNase staining solution (0.05 mg/mL PI, 0.1 mg/mL RNase A in PBS). FACS analysis was performed using FACSCanto II (BD Biosciences, San Jose, CA, USA).

[2] = Pharmacokinetics in SD rats; format: in vivo; settings: male, Sprague-Dawley, rat, plasma
Description: Sprague–Dawley rats (adult males, 250–300 g) were fasted overnight, and the femoral vein (for iv administration of the compound) and jugular vein (for blood sampling) of each rat were cannulated with polyethylene tubing. The selected compounds dissolved in 30% polyethylene glycol (PEG) in saline were administered either intravenously or orally. At various time points after administration, blood samples (0.5 mL) were collected from the jugular vein, transferred to heparin-coated tubes, centrifuged to separate off the plasma. The plasma was stored at −80 °C until assayed. Compound concentrations in plasma were determined by LC/MS/MS analysis (API4000 mass spectrometer, Applied Biosystem, Waltham, MA, USA). Pharmacokinetic parameters were analyzed using the WinNonlin software program. The area under the curve (AUC) was calculated using the trapezoidal rule extrapolated to infinity. The terminal elimination half-life, systemic clearance, and volume of distribution at steady state were determined. The extent of absolute oral bioavailability (F) was estimated by comparing the AUC values after intravenous and oral administration of the compounds.

[3] = Pharmacokinetics in ICR mice; format: in vivo; settings: mouse, plasma, 5 mg/kg

For COc1cc(OC)cc(N2CCN(C(=O)Nc3nc4sccc4nc3OC)CC2)c1 [Compound 7c, 4-(3,5-Dimethoxyphenyl)-N-(2-methoxythieno[2,3-b]pyrazin-3-yl)piperazine-1-carboxamide], the G2/M arrest [1] was “induced G/2M arrest in a dose-dependent manner”, the apoptosis [1] was “did not cause apoptosis” and the AUC(0-inf) ([2]; SD rats, IV, 1 mg/kg) was 708 ng·h/mL. For the same compound, the AUC(0-t) ([2]; SD rats, IV, 1 mg/kg) was 703 ng·h/mL, the Cmax ([2]; SD rats, IV, 1 mg/kg) was 551 ng/mL and the Tmax ([2]; SD rats, IV, 1 mg/kg) was 0.083 h. The clearance ([2]; SD rats, IV, 1 mg/kg) was 25.2 mL/min/kg, the half-life ([2]; SD rats, IV, 1 mg/kg) was 1.11 h and the Vd ([2]; SD rats, IV, 1 mg/kg, read-out: Vss) was 2.31 L/kg. It also gave an AUC(0-inf) ([2]; SD rats, PO, 5 mg/kg) of 964 ng·h/mL, an AUC(0-t) ([2]; SD rats, PO, 5 mg/kg) of 707 ng·h/mL and a Cmax ([2]; SD rats, PO, 5 mg/kg) of 76 ng/mL. It also gave a Tmax ([2]; SD rats, PO, 5 mg/kg) of 4.05 h, a half-life ([2]; SD rats, PO, 5 mg/kg) of 7.5 h and a bioavailability ([2]; SD rats, PO, 5 mg/kg, read-out: F) of 20.1%. It also gave a Cmax ([2]; no unit, species or route stated in b12 (7c value equals SD rats PO of Table 3)) of 76 ng/mL, a bioavailability ([2]; species and route not stated in b12 (7c value equals SD rats PO of Table 3), read-out: bioavailability (F)) of 20.1% and an AUC(0-inf) ([3]; IV) of 16600 ng·h/mL. The AUC(0-t) ([3]; IV) was 16400 ng·h/mL, the clearance ([3]; IV) was 5.08 mL/min/kg and the half-life ([3]; IV) was 2.98 h. For the same compound, the AUC(0-inf) ([3]; PO) was 2340 ng·h/mL, the AUC(0-t) ([3]; PO) was 2260 ng·h/mL and the Cmax ([3]; PO) was 798 ng/mL. It also gave a Tmax ([3]; PO) of 0.667 h, a bioavailability ([3]; PO) of 13.8% and a half-life ([3]; PO) of 5.2 h.
